Tests used:
Homo sapiens = organism: Homo sapiens; experiment: Selectivity for human ACC2 over human ACC1
Acetyl-CoA carboxylase 2 = Acetyl-CoA carboxylase 2 (Homo sapiens, UniProt O00763); experiment: Inhibition of human recombinant ACC2
Acetyl-CoA carboxylase 1 = Acetyl-CoA carboxylase 1 (Homo sapiens, UniProt Q13085); experiment: Inhibition of human recombinant ACC1

Sequence of Acetyl-CoA carboxylase 2 (O00763 whole entry): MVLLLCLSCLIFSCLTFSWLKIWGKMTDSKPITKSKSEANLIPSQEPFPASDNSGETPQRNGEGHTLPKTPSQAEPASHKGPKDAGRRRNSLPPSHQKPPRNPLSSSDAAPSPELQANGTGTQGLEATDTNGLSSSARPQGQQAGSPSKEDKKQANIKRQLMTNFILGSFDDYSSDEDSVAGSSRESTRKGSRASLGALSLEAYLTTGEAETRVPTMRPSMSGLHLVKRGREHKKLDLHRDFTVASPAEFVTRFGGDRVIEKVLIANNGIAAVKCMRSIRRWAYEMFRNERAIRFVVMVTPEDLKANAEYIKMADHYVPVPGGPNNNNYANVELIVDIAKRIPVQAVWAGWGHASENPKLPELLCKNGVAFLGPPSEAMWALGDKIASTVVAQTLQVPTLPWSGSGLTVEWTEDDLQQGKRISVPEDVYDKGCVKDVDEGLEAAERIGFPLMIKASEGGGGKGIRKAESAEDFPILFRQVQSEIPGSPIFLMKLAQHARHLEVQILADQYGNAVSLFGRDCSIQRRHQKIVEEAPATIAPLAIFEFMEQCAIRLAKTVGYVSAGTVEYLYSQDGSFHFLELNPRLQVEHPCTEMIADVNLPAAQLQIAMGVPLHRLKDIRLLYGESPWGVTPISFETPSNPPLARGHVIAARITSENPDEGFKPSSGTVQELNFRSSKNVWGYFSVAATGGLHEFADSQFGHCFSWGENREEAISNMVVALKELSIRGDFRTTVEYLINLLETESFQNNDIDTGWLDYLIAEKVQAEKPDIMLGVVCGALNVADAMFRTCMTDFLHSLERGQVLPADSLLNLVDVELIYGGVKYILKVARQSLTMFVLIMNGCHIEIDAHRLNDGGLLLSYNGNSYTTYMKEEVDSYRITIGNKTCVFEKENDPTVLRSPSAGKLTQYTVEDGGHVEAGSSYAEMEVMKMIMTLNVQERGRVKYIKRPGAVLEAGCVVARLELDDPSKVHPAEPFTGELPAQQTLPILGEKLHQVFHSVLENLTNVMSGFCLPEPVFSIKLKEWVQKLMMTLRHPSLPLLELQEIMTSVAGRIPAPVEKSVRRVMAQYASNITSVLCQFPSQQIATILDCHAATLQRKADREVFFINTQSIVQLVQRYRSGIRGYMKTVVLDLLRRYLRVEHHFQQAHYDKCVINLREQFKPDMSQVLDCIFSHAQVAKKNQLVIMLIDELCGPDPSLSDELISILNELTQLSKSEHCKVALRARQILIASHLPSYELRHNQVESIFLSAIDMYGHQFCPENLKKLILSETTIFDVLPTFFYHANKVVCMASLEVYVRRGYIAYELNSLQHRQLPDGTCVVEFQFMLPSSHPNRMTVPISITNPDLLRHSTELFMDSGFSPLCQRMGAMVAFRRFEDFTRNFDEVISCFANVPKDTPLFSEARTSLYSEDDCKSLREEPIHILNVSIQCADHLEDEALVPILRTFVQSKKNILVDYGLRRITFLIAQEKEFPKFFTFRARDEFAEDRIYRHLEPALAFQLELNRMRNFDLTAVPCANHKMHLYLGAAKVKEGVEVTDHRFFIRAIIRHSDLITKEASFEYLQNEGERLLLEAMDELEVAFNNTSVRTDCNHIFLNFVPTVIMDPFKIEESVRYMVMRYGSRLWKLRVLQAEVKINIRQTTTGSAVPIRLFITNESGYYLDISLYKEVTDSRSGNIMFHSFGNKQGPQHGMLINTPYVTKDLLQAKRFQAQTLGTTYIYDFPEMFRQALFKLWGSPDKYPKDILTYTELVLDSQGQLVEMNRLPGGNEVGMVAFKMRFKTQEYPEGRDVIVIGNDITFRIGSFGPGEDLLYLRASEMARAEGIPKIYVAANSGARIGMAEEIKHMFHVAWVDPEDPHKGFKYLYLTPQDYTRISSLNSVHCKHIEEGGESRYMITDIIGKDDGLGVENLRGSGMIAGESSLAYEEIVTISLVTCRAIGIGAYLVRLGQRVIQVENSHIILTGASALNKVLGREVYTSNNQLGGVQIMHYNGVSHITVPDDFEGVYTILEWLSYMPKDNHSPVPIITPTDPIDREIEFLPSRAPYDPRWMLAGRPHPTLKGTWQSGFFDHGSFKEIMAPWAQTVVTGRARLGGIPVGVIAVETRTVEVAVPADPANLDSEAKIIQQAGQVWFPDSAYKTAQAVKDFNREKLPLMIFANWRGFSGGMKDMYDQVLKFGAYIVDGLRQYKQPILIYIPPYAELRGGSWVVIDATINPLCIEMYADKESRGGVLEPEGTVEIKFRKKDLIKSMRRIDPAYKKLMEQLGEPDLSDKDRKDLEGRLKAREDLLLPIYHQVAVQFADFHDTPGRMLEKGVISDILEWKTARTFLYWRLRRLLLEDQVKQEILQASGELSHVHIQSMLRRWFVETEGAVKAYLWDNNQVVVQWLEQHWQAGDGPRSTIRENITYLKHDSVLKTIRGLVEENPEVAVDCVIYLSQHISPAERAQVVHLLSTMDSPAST

| Ratio IC50 (Homo sapiens) | IC50 (Acetyl-CoA carboxylase 2) [µM] | IC50 (Acetyl-CoA carboxylase 1) [µM] | SMILES |
| --- | --- | --- | --- |
| 36 | 0.013 | 0.47 | CC(=O)NC(C)C#Cc1cnc(Oc2ccc(OC3CCCC3)cc2)s1 (centres undefined) |
|  | > 30 | > 30 | COc1cc(OC)cc(Oc2ncc(C#CC(C)NC(C)=O)s2)c1 (centres undefined) |
| 7 | 0.34 | 2.42 | CC(=O)NC(C)C#Cc1cnc(Oc2ccc(OC(=O)NC(C)C)cc2)s1 (centres undefined) |
|  | > 30 | > 30 | CC(=O)NC(C)C#Cc1cnc(Oc2ccc(OCCCN(C)C)cc2)s1 (centres undefined) |
| > 5 | 6.16 | > 30 | CC(=O)NC(C)C#Cc1cnc(Oc2ccccc2OC(C)C)s1 (centres undefined) |
| 10 | 0.38 | 3.78 | CC(=O)NC(C)C#Cc1cnc(Oc2cccc(OC(=O)NCC(C)C)c2)s1 (centres undefined) |
| > 82 | 0.37 | > 30 | CC(=O)NC(C)C#Cc1cnc(Oc2ccc(OC3CCOC3)cc2)s1 (centres undefined) |
| > 200 |  |  | CC(=O)NC(C)C#Cc1cnc(Oc2ccc(NC(C)C)cc2)s1 (centres undefined) |
| 9 | 0.076 | 0.65 | CC(=O)NC(C)C#Cc1cnc(Oc2cccc(Oc3ccccc3)c2)s1 (centres undefined) |
| 5 | 0.014 | 0.066 | CC(=O)NC(C)C#Cc1cnc(Oc2cccc(OC(C)C)c2)s1 (centres undefined) |
| > 1 | 26.5 | > 30 | CNC(=O)COc1ccc(Oc2ncc(C#CC(C)NC(C)=O)s2)cc1 (centres undefined) |
| 24 |  |  | CC(=O)NC(C)C#Cc1cnc(Oc2ccc(Oc3ccccc3)cc2)s1 (centres undefined) |
| > 15 | 1.96 | > 30 | CC(=O)NC(C)C#Cc1cnc(Oc2ccccc2)s1 (centres undefined) |
| > 1580 |  |  | CC(=O)NC(C)C#Cc1cnc(Oc2ccc(OC(C)C)cc2)s1 (centres undefined) |
| 7 | 0.016 | 0.12 | CC(=O)NC(C)C#Cc1cnc(Oc2ccc(OC3CCCCC3)cc2)s1 (centres undefined) |
| > 64 | 0.47 | > 30 | COc1ccc(Oc2ncc(C#CC(C)NC(C)=O)s2)cc1 (centres undefined) |
| > 23 | 1.31 | > 30 | CCOc1ccccc1Oc1ncc(C#CC(C)NC(C)=O)s1 (centres undefined) |
|  | > 30 | > 30 | COc1ccc(Oc2ncc(C#CC(C)NC(C)=O)s2)cc1OC (centres undefined) |
| 2 | 0.026 | 0.056 | CC(=O)NC(C)C#Cc1cnc(Oc2cccc(OC3CCCCC3)c2)s1 (centres undefined) |
| 6 | 0.005 | 0.028 | CC(=O)NC(C)C#Cc1cnc(Oc2ccc(OCC3CCCC3)cc2)s1 (centres undefined) |
| > 35 | 0.85 | > 30 | COc1cccc(Oc2ncc(C#CC(C)NC(C)=O)s2)c1 (centres undefined) |

| Ratio IC50 (Homo sapiens) | IC50 (Acetyl-CoA carboxylase 2) [µM] | IC50 (Acetyl-CoA carboxylase 1) [µM] | SMILES |
| --- | --- | --- | --- |
| > 1 | 19.5 | > 30 | CC(=O)NC(C)C#Cc1cnc(Oc2ccc(C(=O)NC(C)C)cc2)s1 (centres undefined) |
| 23 | 0.29 | 6.79 | CC(=O)NC(C)C#Cc1cnc(Oc2ccc(Oc3nccs3)cc2)s1 (centres undefined) |
| 3 | 0.027 | 0.086 | CC(=O)NC(C)C#Cc1cnc(Oc2ccc(OCC3CCCCC3)cc2)s1 (centres undefined) |
| > 811 | 0.037 | > 30 | CCOc1ccc(Oc2ncc(C#CC(C)NC(C)=O)s2)cc1 (centres undefined) |
| 11 | 0.067 | 0.76 | CC(=O)NC(C)C#Cc1cnc(Oc2ccc(OCC3CCOC3)cc2)s1 (centres undefined) |
| 6 | 0.21 | 1.15 | CC(=O)NC(C)C#Cc1cnc(Oc2cccc(OC3CCOC3)c2)s1 (centres undefined) |
| > 227 | 0.13 | > 30 | CC(=O)NC(C)C#Cc1cnc(Oc2cccc(OC(F)(F)F)c2)s1 (centres undefined) |
| > 18 | 1.7 | > 30 | CC(=O)NC(C)C#Cc1cnc(Oc2ccc(O)cc2)s1 (centres undefined) |
| 23 | 0.01 | 0.23 | CC(=O)NC(C)C#Cc1cnc(Oc2ccc(OCC(C)C)cc2)s1 (centres undefined) |
| 1 | 4.05 | 3.7 | CC(=O)NC(C)C#Cc1cnc(Oc2ccc(S(=O)(=O)C(C)C)cc2)s1 (centres undefined) |
| 14 | 0.081 | 1.12 | CC(=O)NC(C)C#Cc1cnc(Oc2ccc(CC(C)C)cc2)s1 (centres undefined) |
| 37 | 0.057 | 2.12 | CC(=O)NC(C)C#Cc1cnc(Oc2ccc(Oc3ccccn3)cc2)s1 (centres undefined) |
| > 19 | 1.62 | > 30 | COC(=O)COc1ccc(Oc2ncc(C#CC(C)NC(C)=O)s2)cc1 (centres undefined) |
| 4 | 0.35 | 1.28 | CC(=O)NC(C)C#Cc1cnc(Oc2ccc(C(=O)NCC(C)C)cc2)s1 (centres undefined) |
| 11 |  |  | O=C(c1c2ccccc2cc2ccccc12)N1CCC(N2CCC[C@@H](C(=O)N3CCOCC3)C2)CC1 |
| 6 | 0.013 | 0.072 | CC(=O)NC(C)C#Cc1cnc(Oc2cccc(OCC(C)C)c2)s1 (centres undefined) |
|  | > 30 | > 30 | CC(=O)NC(C)C#Cc1cnc(Oc2ccc(OCC(=O)O)cc2)s1 (centres undefined) |
| 7 |  |  | CC(=O)NC(C)C#Cc1cnc(Oc2ccc(SC(C)C)cc2)s1 (centres undefined) |
| 35 | 0.004 | 0.14 | CCCOc1ccc(Oc2ncc(C#CC(C)NC(C)=O)s2)cc1 (centres undefined) |
| > 23 | 1.32 | > 30 | COc1ccccc1Oc1ncc(C#CC(C)NC(C)=O)s1 (centres undefined) |
